Like-named read-outs stand apart in the source and are kept apart here.
Legend:
[1] = test system: MCF-7 cells (with PI3Kα E545K mutation); assay: In vitro inhibition of MCF-7 cell proliferation (CellTiter-Lumi); type: cell-based; details: Homo sapiens, MCF7, 144 h
Summary of the method: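 MCF-7 (PI3Kα E545K) seeded at 2000 cells/well; serially diluted compounds added next day and exposed for 144 h. Cellular ATP read by CellTiter-Lumi luminescence; IC50 for growth inhibition calculated.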

[2] = test system: HCC1954 cells (with PI3Kα H1047R mutation); assay: In vitro inhibition of HCC1954 cell proliferation (CellTiter-Lumi); type: cell-based; details: Homo sapiens, HCC1954, 144 h, HCC1954 cells, 144 h, CellTiter-Lumi
Procedure: Assay for In Vitro Inhibition of HCC1954 Cell Proliferation by Compounds of the Present Disclosure
The growth of the cells was evaluated, and the IC50 for the inhibition of cell growth by the compounds was calculated.

[3] = numeric values, read-out: Inhibitory activity against MCF-7 cells (IC50)
[4] = numeric values, read-out: Inhibitory activity against HCC1954 cells (IC50)
[5] = class symbols, read-out: Inhibitory activity against MCF-7 cells (IC50), class symbols
[6] = class symbols, read-out: Inhibitory activity against HCC1954 cells (IC50), class symbols

IC50 [1, 3] | IC50 [2, 4] | IC50 [1, 5] | IC50 [2, 6] | Compound
26 nM | 166 nM |  |  | C=CC(=O)Nc1ccc(N2CCN(c3ccc4c(c3)-c3nc(N5C(=O)OC[C@H]5C(F)F)cn3CCO4)CC2)cc1 [Compound 174]
0.2 nM | 4.9 nM |  |  | C=CC(=O)Nc1ccc(N2CC(N3CCN(c4ccc5c(c4)-c4nc(N6C(=O)OC[C@H]6CF)cn4CCO5)CC3)C2)cc1 [Compound 176]
0.1 nM | 2.2 nM |  |  | C=CC(=O)N1CCc2cc(N3CC(N4CCN(c5ccc6c(c5)-c5nc(N7C(=O)OC[C@H]7C(F)F)cn5CCO6)CC4)C3)c(F)cc21 [Compound 177]
 |  | < 50 nM | < 50 nM | C=CC(=O)Nc1ccc(N2CC(N3CCN(c4ccc5c(c4)-c4nc(N6C(=O)CC[C@H]6C(F)F)cn4CCO5)CC3)C2)cc1 [Compound 178]
 |  | 50 to 100 nM | 50 to 100 nM | C=CC(=O)Nc1ccc(C#CC2CCN(c3ccc4c(c3)-c3nc(N5C(=O)OC[C@H]5C(F)F)cn3CCO4)CC2)cc1 [Compound 179]
 |  | < 50 nM | 50 to 100 nM | C=CC(=O)Nc1ccc(C2CN(c3ccc(-c4ccc5c(c4)-c4nc(N6C(=O)OC[C@H]6C(F)F)cn4CCO5)cc3)C2)cc1 [Compound 181]
 |  | 50 to 100 nM | 50 to 100 nM | C=CC(=O)Nc1ccc(N2CCN(CC#Cc3ccc4c(c3)-c3nc(N5C(=O)OC[C@H]5C(F)F)cn3CCO4)CC2)cc1 [Compound 182]
21 nM | 219 nM |  |  | C=CC(=O)Nc1ccc(N2CCC3(CC2)CCN(c2ccc4c(c2)-c2nc(N5C(=O)OC[C@H]5C(F)F)cn2CCO4)CC3)cc1 [Compound 183]
 |  | < 50 nM | < 50 nM | N#C/C(=C\CN)C(=O)Nc1ccc(N2CC(N3CCN(c4ccc5c(c4)-c4nc(N6C(=O)OC[C@H]6C(F)F)cn4CCO5)CC3)C2)cc1 [Compound 184]
 |  | < 50 nM | < 50 nM | CNCC#CC(=O)Nc1ccc(N2CC(N3CCN(c4ccc5c(c4)-c4nc(N6C(=O)OC[C@H]6C(F)F)cn4CCO5)CC3)C2)cc1 [Compound 185]
4.3 nM | 32 nM |  |  | CNC/C=C/C(=O)Nc1ccc(N2CC(N3CCN(c4ccc5c(c4)-c4nc(N6C(=O)OC[C@H]6C(F)F)cn4CCO5)CC3)C2)cc1 [Compound 186]
 |  | < 50 nM | < 50 nM | CC=C(C#N)C(=O)Nc1ccc(N2CC(N3CCN(c4ccc5c(c4)-c4nc(N6C(=O)OC[C@H]6C(F)F)cn4CCO5)CC3)C2)cc1 [Compound 187]
 |  | < 50 nM | 50 to 100 nM | CC(C)=CC(=O)CCCC(=O)N1CCC(/C=C/c2ccc3c(c2)-c2nc(N4C(=O)OC[C@H]4C(F)F)cn2CCO3)CC1 [Compound 189]
 |  | < 50 nM | 50 to 100 nM | CC(C)=CC(=O)CCCC(=O)N1CCN(Cc2ccc3c(c2)-c2nc(N4C(=O)OC[C@H]4C(F)F)cn2CCO3)CC1 [Compound 190]
 |  | < 50 nM | 50 to 100 nM | CC(C)=CC(=O)CCC(=O)N1CCC(C#Cc2ccc3c(c2)-c2nc(N4C(=O)OC[C@H]4C(F)F)cn2CCO3)CC1 [Compound 191]
 |  | < 50 nM | 50 to 100 nM | CC(C)=CC(=O)CCC(=O)N1CCN(Cc2ccc3c(c2)-c2nc(N4C(=O)OC[C@H]4C(F)F)cn2CCO3)CC1 [Compound 192]
 |  | < 50 nM | < 50 nM | C=CC(=O)N1CCc2cc(N3CC(N4CCN(c5ccc6c(c5)-c5nc(N7C(=O)OC[C@H]7C(F)F)cn5CCO6)CC4)C3)cc(C#N)c21 [Compound 193]
0.1 nM | 1.2 nM |  |  | C=CC(=O)Nc1ccc(N2CC(N3CCN(c4ccc5c(c4)-c4nc(N6C(=O)OC[C@H]6C(F)F)cn4CCO5)CC3)C2)cc1Cl [Compound 194]
0.3 nM | 4.6 nM |  |  | C=CC(=O)Nc1ccc(N2CC(N3CCN(c4ccc5c(c4)-c4nc(N6C(=O)OC[C@H]6C(F)F)cn4CCO5)CC3)C2)c(Cl)c1 [Compound 195]
 |  | > 1000 nM | > 1000 nM | C=CC(=O)Nc1ccc(N2CCN(c3ccc(-c4ccc5c(c4)-c4nc(N6C(=O)OC[C@H]6C(F)F)cn4CCO5)cc3)CC2)cc1 [Compound 196]
 |  | < 50 nM | 100 to 1000 nM | C=CC(=O)N1CC(N2CCC(c3ccc(-c4ccc5c(c4)-c4nc(N6C(=O)OC[C@H]6C(F)F)cn4CCO5)cc3)CC2)C1 [Compound 197]
 |  | 50 to 100 nM | 100 to 1000 nM | C=CC(=O)N1CCC(C2CN(c3ccc(-c4ccc5c(c4)-c4nc(N6C(=O)OC[C@H]6C(F)F)cn4CCO5)cc3)C2)CC1 [Compound 198]
 |  | < 50 nM | 100 to 1000 nM | C=CC(=O)N1CC(C2CCN(c3ccc(-c4ccc5c(c4)-c4nc(N6C(=O)OC[C@H]6C(F)F)cn4CCO5)cc3)CC2)C1 [Compound 199]
 |  | < 50 nM | 50 to 100 nM | C=CC(=O)Nc1ccc2c(c1)CCN(CC#Cc1ccc3c(c1)-c1nc(N4C(=O)OC[C@H]4C(F)F)cn1CCO3)C2 [Compound 200]

IC50 [1, 3] | IC50 [2, 4] | IC50 [1, 5] | IC50 [2, 6] | Compound
 |  | < 50 nM | 50 to 100 nM | C=CC(=O)Nc1ccc(C2CN(CC#Cc3ccc4c(c3)-c3nc(N5C(=O)OC[C@H]5C(F)F)cn3CCO4)C2)cc1 [Compound 201]
 |  | < 50 nM | 50 to 100 nM | C=CC(=O)Nc1ccc(N2CCC(C#Cc3ccc4c(c3)-c3nc(N5C(=O)OC[C@H]5C(F)F)cn3CCO4)CC2)cc1 [Compound 202]
 |  | < 50 nM | 50 to 100 nM | C=CC(=O)Nc1ccc(N2CC(C#Cc3ccc4c(c3)-c3nc(N5C(=O)OC[C@H]5C(F)F)cn3CCO4)C2)cc1 [Compound 203]
 |  | < 50 nM | 50 to 100 nM | C=CC(=O)Nc1ccc2c(c1)CCN(C1CCN(c3ccc4c(c3)-c3nc(N5C(=O)OC[C@H]5C(F)F)cn3CCO4)CC1)C2 [Compound 204]
 |  | < 50 nM | 50 to 100 nM | C=CC(=O)Nc1ccc2c(c1)CCN2CCN1CCN(c2ccc3c(c2)-c2nc(N4C(=O)OC[C@H]4C(F)F)cn2CCO3)CC1 [Compound 205]
 |  | < 50 nM | 50 to 100 nM | C=CC(=O)N1CCc2cc(N3CCN(c4ccc5c(c4)-c4nc(N6C(=O)OC[C@H]6C(F)F)cn4CCO5)CC3)ccc2C1 [Compound 206]
 |  | < 50 nM | 50 to 100 nM | C=CC(=O)N1CCc2cc(CN3CCN(c4ccc5c(c4)-c4nc(N6C(=O)OC[C@H]6C(F)F)cn4CCO5)CC3)ccc2C1 [Compound 207]
 |  | < 50 nM | 50 to 100 nM | C=CC(=O)Nc1ccc(N2CC(/C=C/c3ccc4c(c3)-c3nc(N5C(=O)OC[C@H]5C(F)F)cn3CCO4)C2)cc1 [Compound 208]
 |  | < 50 nM | 50 to 100 nM | C=CC(=O)Nc1ccc(N2CCC(/C=C/c3ccc4c(c3)-c3nc(N5C(=O)OC[C@H]5C(F)F)cn3CCO4)CC2)cc1 [Compound 209]
 |  | < 50 nM | 50 to 100 nM | C=CC(=O)Nc1ccc(N2CCC(C/C=C/c3ccc4c(c3)-c3nc(N5C(=O)OCC5C(F)F)cn3CCO4)CC2)cc1 (stereo not shown) [Compound 210]
 |  | < 50 nM | < 50 nM | CC(C)(O)C=C(C#N)C(=O)Nc1ccc(N2CC(N3CCN(c4ccc5c(c4)-c4nc(N6C(=O)OC[C@H]6C(F)F)cn4CCO5)CC3)C2)cc1 [Compound 211]
 |  | < 50 nM | < 50 nM | COC(C)(C)C=C(C#N)C(=O)Nc1ccc(N2CC(N3CCN(c4ccc5c(c4)-c4nc(N6C(=O)OC[C@H]6C(F)F)cn4CCO5)CC3)C2)cc1 [Compound 212]
 |  | < 50 nM | < 50 nM | N#CC(=CC1(N)CC1)C(=O)Nc1ccc(N2CC(N3CCN(c4ccc5c(c4)-c4nc(N6C(=O)OC[C@H]6C(F)F)cn4CCO5)CC3)C2)cc1 [Compound 213]
 |  | < 50 nM | < 50 nM | N#CC(=CC1CCCN1)C(=O)Nc1ccc(N2CC(N3CCN(c4ccc5c(c4)-c4nc(N6C(=O)OC[C@H]6C(F)F)cn4CCO5)CC3)C2)cc1 (stereo partly shown) [Compound 214]
 |  | < 50 nM | < 50 nM | CNC(C)(C)C=C(C#N)C(=O)Nc1ccc(N2CCC(N3CCN(c4ccc5c(c4)-c4nc(N6C(=O)OCC6C(F)F)cn4CCO5)CC3)C2)cc1 (stereo not shown) [Compound 215]
 |  | < 50 nM | < 50 nM | C=CC(=O)Nc1ccc(N2CC(N3CCN(c4ccc5c(c4)-c4nc(N6C(=O)OC[C@H]6C(F)F)cn4CCO5)CC3)C2)nc1C [Compound 216]
 |  | < 50 nM | < 50 nM | C=CC(=O)Nc1cnc(N2CC(N3CCN(c4ccc5c(c4)-c4nc(N6C(=O)OC[C@H]6C(F)F)cn4CCO5)CC3)C2)cc1C [Compound 217]
 |  | < 50 nM | < 50 nM | COCCNC(C)(C)C=C(C#N)C(=O)Nc1ccc(N2CC(N3CCN(c4ccc5c(c4)-c4nc(N6C(=O)OC[C@H]6C(F)F)cn4CCO5)CC3)C2)cc1 [Compound 218]
 |  | < 50 nM | < 50 nM | CNC(C)(C)C=C(C#N)C(=O)Nc1cc(N2CC(N3CCN(c4ccc5c(c4)-c4nc(N6C(=O)OC[C@H]6C(F)F)cn4CCO5)CC3)C2)n(C)n1 [Compound 219]
 |  | < 50 nM | < 50 nM | CN(C1COC1)C(C)(C)C=C(C#N)C(=O)Nc1ccc(N2CC(N3CCN(c4ccc5c(c4)-c4nc(N6C(=O)OC[C@H]6C(F)F)cn4CCO5)CC3)C2)c(F)c1 [Compound 220]
 |  | < 50 nM | < 50 nM | CC(C)(C=C(C#N)C(=O)Nc1ccc(N2CC(N3CCN(c4ccc5c(c4)-c4nc(N6C(=O)OC[C@H]6C(F)F)cn4CCO5)CC3)C2)c(F)c1)NC1COC1 [Compound 221]
 |  | < 50 nM | < 50 nM | CC(C)(C=C(C#N)C(=O)Nc1ccc(N2CC(N3CCN(c4ccc5c(c4)-c4nc(N6C(=O)OC[C@H]6C(F)F)cn4CCO5)CC3)C2)c(F)c1)N1CCOCC1 [Compound 222]
 |  | < 50 nM | < 50 nM | CC(C)(C)C=C(C#N)C(=O)Nc1ccc(N2CC(N3CCN(c4ccc5c(c4)-c4nc(N6C(=O)OC[C@H]6C(F)F)cn4CCO5)CC3)C2)c(F)c1 [Compound 223]

— patent US20260193268A1, “TRICYCLIC PI3Ka INHIBITOR, PREPARATION METHOD THEREFOR, AND PHARMACEUTICAL USE THEREOF” (WIGEN BIOMEDICINE TECHNOLOGY (SHANGHAI) CO., LTD., priority 2022, published 2026)
